For 79 compounds, RP-LC retention time results are on record in the METLIN SMRT retention time set (Domingo-Almenara et al. 2019).

The series can be described thus: gradient 5% acetonitrile 3 min, to 50% in 2 min, to 85% in 15 min, held 3 min, 100 µL/min. To be noted: column: Zorbax Extend-C18 2.1 x 50 mm; eluents: water / acetonitrile, 0.1% formic acid. A digest of the protocol:
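Values are retention times taken from adduct peaks that software picked and an analyst inspected. The pure standards were run as mixtures of ~100 molecules on HPLC linked to a quadrupole time-of-flight mass spectrometer, in positive and negative ionization mode. A Zorbax Extend-C18 column (2.1 × 50 mm, 1.8 μm) was used at 100 μL/min with water and acetonitrile, each including 0.1% formic acid.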
As to `O=C(c1ccc(OCC2CCN(C(=O)c3ccsc3)CC2)cc1)N1CCOCC1`, the RP-LC retention time is 678 s.
With `CCOc1ccc(-c2cn3ccn(-c4cc(Cl)ccc4C)c(=O)c3n2)cc1` the figure was 934 s; with `Cc1cc2c(=O)n(CC(=O)Nc3ccc(Cl)cc3F)ccc2s1`, 871 s.
Take `O=C(Nc1ccc(F)cc1)C1CCN(S(=O)(=O)c2cc(C(=O)N3CCCCCC3)cs2)CC1`: the RP-LC retention time turned out to be 920 s.
Take `CN1c2ccccc2C(=O)NC12CCN(C(=O)Nc1cccc(Cl)c1)CC2`: the RP-LC retention time was 804 s.
Regarding `Cc1cccc(-c2csc3c(=O)n(CC(=O)OC(C)(C)C)cnc23)c1`, the RP-LC retention time amounted to 1070 s.
On to `CCCN(CCC)C1CCc2ccc(O)cc2C1` (centres undefined), for which the RP-LC retention time is 640 s.
Take `O=C(Nc1cccc(OCc2nnc(-c3ccccc3)o2)c1)c1cnccn1`: the RP-LC retention time came to 825 s.
Consider `COc1ccc(-c2csc(NC(=O)Cn3nc(C)cc3C)n2)cc1`, for which the RP-LC retention time came to 842 s.
With `CCOc1ccc(CNC(=O)c2cn3ccccc3n2)cc1` the figure was 687 s; with `O=C1NCCC1Cc1ccc(C(F)(F)F)cc1` (centres undefined), 710 s.
Consider `CCOC(=O)C1CCCN(C(=O)c2ccc(SCCN3CCCCC3)nc2)C1` (centres undefined), for which the RP-LC retention time amounted to 629 s.
For the compound `O=C(NCc1ccc(Cl)cc1)c1nc(N2CCOCC2)c2ccccc2n1`, the RP-LC retention time came out at 721 s.
With `CC(Oc1ccccc1)c1nc(-c2ccc3nnn(C)c3c2)no1` (centres undefined) the figure was 1060 s; with `CCOc1ccc([C@H]2N(c3cc(C)on3)C(=O)[C@@H]3CCCN32)cc1`, 743 s.
With `Cc1ccc(NC(=O)Nc2ccc3nncn3c2)cc1` the figure was 700 s; with `Cc1ccccc1CNC(=O)CN1CCN(Cc2ccccc2)C1=O`, 806 s.
Consider `CN(C)C(=O)c1csc(S(=O)(=O)N2CCC(C(=O)NCc3ccc4c(c3)OCO4)CC2)c1`, for which the RP-LC retention time came to 714 s.
`O=C(Nc1nc(-c2ccc3c(c2)OCCO3)cs1)c1ccc2ncsc2c1` came in with an RP-LC retention time of 857 s.
In the case of `COc1ccc(NC(=O)c2sc(-c3cn(C(C)C)c4ncccc34)nc2C)cc1`, the RP-LC retention time came to 902 s.
In the case of `CCn1cc(C)c(C(=O)O)c1CC(=O)N(C)c1ccc(C)c(C)c1` it was 1000 s; in that of `CCc1nc(-c2csc(S(=O)(=O)N3CCCC(C(=O)Nc4ccc(Cl)cc4C)C3)c2)no1` (centres undefined), 1100 s.
Turning to `CN1C(=O)c2cccn2CC1C(=O)NCC1CC1` (centres undefined), the RP-LC retention time was 608 s.
Take `O=C(Cc1cccc(Cl)c1)N1CC2CN(S(=O)(=O)c3cccc(F)c3)CC(C1)O2`: the RP-LC retention time stood at 900 s.
`CCCNC(=O)NCCC1CCN(S(=O)(=O)c2ccc(C)cc2)CC1`: the RP-LC retention time is 742 s.
`Cc1cc(C(=O)Nc2c(F)c(F)c(F)c(F)c2F)n(-c2ccccc2)n1` gave an RP-LC retention time of 917 s.
In the case of `CCn1nccc1-c1cccc(-c2noc(-c3ccccn3)n2)c1` it was 897 s; in that of `CC1(C)C(=O)N2c3ccccc3C3(CC(N4C(=O)c5ccccc5C4=O)C(=O)O3)C2N1C(=O)OCc1ccccc1` (centres undefined), 1170 s; in that of `CC1(C)CC(=O)c2cn(-c3ccccc3)c(=O)c(C(=O)NC3CCCCC3)c2C1`, 1010 s.
As to `CC(C)n1cnnc1CC1CN(C(=O)Nc2cc(F)ccc2F)C1`, the RP-LC retention time was determined as 631 s.
In turn, `O=C(Cc1ccc(S(=O)(=O)N2CCN(c3ccccn3)CC2)s1)N1CCCC1` returned an RP-LC retention time of 615 s.
`Cc1cc(Nc2ccc(NC(=O)c3sc(C)nc3C)cc2)nc(N2CCCC2)n1` came in with an RP-LC retention time of 583 s.
In the case of `CCn1cc(-c2ccncc2)cc1C(=O)NCc1cccc(Br)c1` it was 705 s.
In turn, `CCNC(=O)N1CC(n2cc(C(=O)NCCCOC)nn2)C1` showed an RP-LC retention time of 580 s.
In the case of `CCNC(=O)c1cc(C)nc2ccc(C)cc12` it was 568 s.
In the case of `O=C(Cn1c(=O)c(S(=O)(=O)c2ccccc2)cc2ccccc21)NC1CCCCC1` it was 894 s; in that of `COc1ccc(-n2ncc3c(=O)n(Cc4nc(-c5ccc(C(F)(F)F)cc5)no4)cnc32)cc1`, 1090 s; in that of `Cc1cc(C)nc(Nc2nc(C(=O)Nc3ccc(N4CCOCC4)cc3)cs2)n1`, 746 s.
With `CCN(CC)S(=O)(=O)c1cc(-c2nnc(-c3ccc(OC)c(OC)c3)o2)ccc1C`, the RP-LC retention time stood at 991 s.
`CCc1cc(=O)n(CC(=O)Nc2cc(Cl)ccc2OC)c(N2CCOCC2)n1` displayed an RP-LC retention time of 935 s.
In the case of `CN(c1ccc(F)cc1)S(=O)(=O)N1CCCC(C(=O)N2CCN(c3ccccn3)CC2)C1` (centres undefined) it was 660 s; in that of `CC(C)Oc1ccc(-c2noc(CCn3nc(-c4ccc(F)cc4)ccc3=O)n2)cc1`, 1100 s; in that of `O=C(NCc1ccc(Br)cc1)C1CCN(c2cnc3nccnc3c2)CC1`, 746 s.
In the case of `CC(C)(C)c1ccc(C(=O)NC2CCN(c3cc(-c4ccccc4)[nH]n3)C2)cc1` (centres undefined) it was 872 s; in that of `CCN1CCN(C(=O)Cc2ccc(Nc3ncc(F)c(Nc4ccc(C(=O)Nc5ccccc5Cl)cc4)n3)cc2)CC1`, 684 s.
Compound `Cc1sc(-c2cc(C(F)(F)F)on2)cc1S(=O)(=O)N1CCCCCC1` yielded an RP-LC retention time of 1270 s.
For the compound `CCC(=O)N(C1CCOCC1)C1CCN(Cc2cn(CC)c3ccccc23)CC1`, the RP-LC retention time came out at 674 s.
With `Cc1ccc(Cn2c(=O)c(N3CCN(C(=O)NCc4ccco4)CC3)nc3ccccc32)cc1` the figure was 1010 s.
`O=C(O)c1cnc(-c2ccc(F)cc2)nc1-c1ccncc1` registered an RP-LC retention time of 690 s.
`COc1ccc(-n2ccn3cc(-c4ccc(Br)cc4)nc3c2=O)cc1` came in with an RP-LC retention time of 891 s.
`Cn1c(=O)c(C(=O)N2CCN(c3ccccn3)CC2)nc2ccccc21` showed an RP-LC retention time of 1310 s.
With `CCCCCCNc1nc(-c2ccc(OC)cc2)c(CCC(=O)O)s1` the figure was 716 s; with `Cn1nc(-c2nnc(-c3ccc(F)cc3)o2)c2c1CCN(S(=O)(=O)c1cccc3nsnc13)C2`, 910 s.
On to `O=C(O)c1nnn(-c2ccc3c(c2)CCC3)c1-c1ccccn1`, for which the RP-LC retention time was determined as 750 s.
For the compound `O=C(Nc1ccccc1)C1CCN(S(=O)(=O)c2cc(C(=O)N3CCCCCC3)cs2)CC1`, the RP-LC retention time worked out at 896 s.
Turning to `Cc1ccc(Cn2c(=O)n(CCNC(=O)C3CCOC3)c3ncccc32)cc1` (centres undefined), the RP-LC retention time worked out at 710 s.
On to `COC(=O)C1=CN(C2CC2)c2cc(N3CCN(c4ccccc4OC)CC3)c(F)cc2S1(=O)=O`, for which the RP-LC retention time was determined as 904 s.
As to `CCOc1cccc(-c2noc(Cn3c(=O)n(-c4ccc(OC)cc4)c(=O)c4sccc43)n2)c1`, the RP-LC retention time is 1000 s.
With `COc1ccc(CC(=O)N2CCCC(c3nnc(-c4ccccc4F)s3)C2)cc1OC` (centres undefined), the RP-LC retention time was determined as 794 s.
In the case of `COC(=O)c1ccc(NC(=O)C2CCCN2S(=O)(=O)c2ccc(F)cc2)cc1` (centres undefined), the RP-LC retention time came to 641 s.
The compound `Cc1ccc(CNC(=O)C2(C)CN(S(=O)(=O)c3ccccc3)CC(=O)N2CCC(C)C)cc1` (centres undefined) had an RP-LC retention time of 1030 s.
`O=C(OCc1ccncc1)c1cn(-c2cccc(F)c2)c(=O)c2ccccc12`: the RP-LC retention time came to 713 s.
`CC(C)NC(=O)CCNc1c(-c2ccc(F)cc2)nc2cnccn12` displayed an RP-LC retention time of 616 s.
Regarding `Cc1ccc(Nc2c(-c3ccccc3O)nc3ccccn23)cc1`, the RP-LC retention time was 739 s.
Regarding `Cc1ccc(C)c(CNC(=O)C2CCc3nc(N4CCCC4)ncc3C2)c1` (centres undefined), the RP-LC retention time was found to be 691 s.
In turn, `Cc1cccc(N2CCN(c3ccc4cc(S(=O)(=O)N5CCC(C)CC5)ccc4n3)CC2)c1C` came in with an RP-LC retention time of 1460 s.
In the case of `CC(C)c1nc2ccc(C(=O)NCCCN3CCN(C4CCCCC4)CC3)cc2o1` it was 588 s; in that of `CC(C)n1cc(S(=O)(=O)Nc2cccc(Cl)c2)c2cccnc21`, 946 s.
In the case of `CCCNC(=O)C1CCN(c2ccc(SCC(=O)N(C)c3ccccc3)nn2)CC1`, the RP-LC retention time was determined as 627 s.
`CCN(CC)C(=O)c1ccc2c(c1)N(CC(=O)NCCN1CCN(C)CC1)C(=O)CO2` came in with an RP-LC retention time of 567 s.
The compound `O=C(Cn1c(=O)n(C2CC2)c(=O)c2nscc21)NCc1cccs1` registered an RP-LC retention time of 670 s.
Compound `Cc1ccc(-c2nc(-c3ccc(-n4cccn4)nc3)no2)cc1F` displayed an RP-LC retention time of 1370 s.
Regarding `Cc1c(NC(=O)C2CCC2)c(=O)n(-c2ccccc2)n1C`, the RP-LC retention time was 596 s.
Consider `CCCOC(=O)Cn1c(=O)oc2cc(S(=O)(=O)N3CCN(c4ccccn4)CC3)ccc21`, for which the RP-LC retention time was determined as 703 s.
`COc1ccc(NC(=O)N2CCN(CCn3c(C(C)C)nc4cccnc43)CC2)c(OC)c1` had an RP-LC retention time of 592 s.
With `COc1ccc(-c2c(C)noc2NC(C)=O)cc1S(=O)(=O)Nc1ccc(C)cc1C`, the RP-LC retention time was 804 s.
`COc1ccc(N2C(=O)CCC(C(=O)NCCCN3CCC(C)CC3)C2c2ccc(F)cc2)cc1` (centres undefined) yielded an RP-LC retention time of 605 s.
Take `Cc1nc(-c2cccc(F)c2)sc1C(=O)NC1CC1`: the RP-LC retention time turned out to be 827 s.
`CCOC(=O)C1=C(CN2CCCCC2)NC(=O)NC1c1ccco1` (centres undefined): the RP-LC retention time amounted to 579 s.
